Results: patent publication US9975907B2, “Pyrimidinones as PI3K inhibitors” (Incyte Corporation, priority 2009, dated 2018)

How the values were obtained:
PI3Kδ = PI3Kδ (Homo sapiens (Human), UniProt O00329); experiment: PI3K Enzyme Assay A2 ([γ-33P]ATP filter plate), PI3Kδ; type: biochemical; settings: column a, Examples 15, 30 and 44 used Assay A2, 1000 μM ATP
Protocol: Materials: Lipid kinase substrate, phosphoinositol-4,5-bisphosphate (PIP2), was purchased from Echelon Biosciences (Salt Lake City, Utah). PI3K isoforms α, β, δ and γ were purchased from Millipore (Bedford, Mass.). ATP, MgCh, DTT, EDTA, MOPS and CHAPS were purchased from Sigma-Aldrich (St. Louis, Mo.). The kinase reaction was conducted in clear-bottom 96-well plate from Thermo Fisher Scientific in a final volume of 24 μL. Inhibitors were first diluted serially in DMSO and added to the plate wells before the addition of other reaction components. The final concentration of DMSO in the assay was 0.5%. The PI3K assays were carried out at room temperature in 20 mM MOPS, pH 6.7, 10 mM MgCl2, 5 mM DTT and CHAPS 0.03%. The reaction mixture was prepared containing 50 μM PIP2, kinase and varying concentration of inhibitors. Reactions were initiated by the addition of ATP containing 2.2 μCi [γ-^33P]ATP to a final concentration of 1000 μM. […] Reactions were incubated for 180 min and terminated by the addition of 100 μL of 1 M potassium phosphate pH 8.0, 30 mM EDTA quench buffer. […] After the plate sealing, the radioactivity of the product was determined by scintillation counting on Topcount (Perkin-Elmer). […]

[1] = test system: purified B cells from human PBMC; experiment: B Cell Proliferation Assay; type: cell-based; settings: anti-human IgM stimulated, three days, [3H]-thymidine incorporation
Protocol: To acquire B cells, human PBMC were isolated from the peripheral blood of normal, drug free donors by standard density gradient centrifugation on Ficoll-Hypague (GE Healthcare, Piscataway, N.J.) and incubated with anti-CD19 microbeads (Miltenyi Biotech, Auburn, Calif.). The B cells were then purified by positive immunosorting using an autoMacs (Miltenyi Biotech) according to the manufacturer's instruction.
The purified B cells (2×10^5/well/200 μL) were cultured in 96-well ultra-low binding plates (Corning, Corning, N.Y.) in RPMI1640, 10% FBS and goat F(ab′)2 anti-human IgM (10 μg/ml) (Invitrogen, Carlsbad, Calif.), in the presence of different amount of test compounds, for three days. [^3H]-thymidine (1 μCi/well) (PerkinElmer, Boston, Mass.) in PBS was then added to the B cell cultures for an additional 12 hrs before the incorporated radioactivity was separated by filtration with water through GF/B filters (Packard Bioscience, Meriden, Conn.) and measured by liquid scintillation counting with a TopCount (Packard Bioscience). Compounds having and IC^50 value of 10 μM or less are considered active. See Table 2 for data related to compounds of the invention.

[2] = test system: Pfeiffer cell line (diffuse large B cell lymphoma); experiment: Pfeiffer Cell Proliferation Assay; type: cell-based; settings: Homo sapiens, Pfeiffer, 3-4 days, [3H]-thymidine incorporation
Protocol: Pfeiffer cell line (diffuse large B cell lymphoma) was purchased from ATCC (Manassas, Va.) and maintained in the culture medium recommended (RPMI and 10% FBS). To measure the anti-proliferation activity of the PI3Kδ submittals, the Pfeiffer cells were plated with the culture medium (2×10^3 cells/well/per 200 μl) into 96-well ultra-low binding plates (Corning, Corning, N.Y.), in the presence or absence of a concentration range of test compounds. After 3-4 days, [^3H]-thymidine (1 μCi/well) (PerkinElmer, Boston, Mass.) in PBS was then added to the cell culture for an additional 12 hrs before the incorporated radioactivity was separated by filtration with water through GF/B filters (Packard Bioscience, Meriden, Conn.) and measured by liquid scintillation counting with a TopCount (Packard Bioscience). See Table 3 for data related to compounds of the invention.

Measured: IC50

Sequence of PI3Kδ (O00329 whole entry, species assumed, canonical isoform): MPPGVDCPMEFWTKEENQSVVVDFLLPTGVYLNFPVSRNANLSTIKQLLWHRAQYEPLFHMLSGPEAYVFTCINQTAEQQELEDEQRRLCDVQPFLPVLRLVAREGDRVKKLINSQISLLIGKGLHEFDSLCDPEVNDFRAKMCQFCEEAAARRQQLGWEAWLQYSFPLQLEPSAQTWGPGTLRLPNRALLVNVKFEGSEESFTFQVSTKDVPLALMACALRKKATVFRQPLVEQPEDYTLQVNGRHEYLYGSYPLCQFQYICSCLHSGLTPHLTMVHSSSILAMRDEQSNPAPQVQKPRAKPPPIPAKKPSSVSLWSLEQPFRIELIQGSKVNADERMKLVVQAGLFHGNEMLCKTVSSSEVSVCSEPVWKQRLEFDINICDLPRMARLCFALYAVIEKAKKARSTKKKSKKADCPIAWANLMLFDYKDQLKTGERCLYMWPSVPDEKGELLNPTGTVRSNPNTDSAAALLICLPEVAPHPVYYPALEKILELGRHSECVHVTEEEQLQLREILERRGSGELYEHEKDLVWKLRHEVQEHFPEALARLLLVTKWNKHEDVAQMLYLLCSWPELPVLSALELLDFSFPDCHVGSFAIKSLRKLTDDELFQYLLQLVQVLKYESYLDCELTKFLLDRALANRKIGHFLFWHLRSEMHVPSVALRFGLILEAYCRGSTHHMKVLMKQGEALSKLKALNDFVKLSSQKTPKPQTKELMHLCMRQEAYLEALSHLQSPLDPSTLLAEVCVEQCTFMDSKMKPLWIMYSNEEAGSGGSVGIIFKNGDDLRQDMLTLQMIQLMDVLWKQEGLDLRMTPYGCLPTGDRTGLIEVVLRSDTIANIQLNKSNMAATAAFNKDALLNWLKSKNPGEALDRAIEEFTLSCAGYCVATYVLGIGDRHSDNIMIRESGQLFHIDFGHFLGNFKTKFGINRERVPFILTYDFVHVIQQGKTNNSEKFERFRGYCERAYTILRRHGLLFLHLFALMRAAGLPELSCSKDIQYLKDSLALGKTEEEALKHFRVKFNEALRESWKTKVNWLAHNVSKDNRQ
Sequence of PI3Kδ (P27986 whole entry partner, species assumed, canonical isoform): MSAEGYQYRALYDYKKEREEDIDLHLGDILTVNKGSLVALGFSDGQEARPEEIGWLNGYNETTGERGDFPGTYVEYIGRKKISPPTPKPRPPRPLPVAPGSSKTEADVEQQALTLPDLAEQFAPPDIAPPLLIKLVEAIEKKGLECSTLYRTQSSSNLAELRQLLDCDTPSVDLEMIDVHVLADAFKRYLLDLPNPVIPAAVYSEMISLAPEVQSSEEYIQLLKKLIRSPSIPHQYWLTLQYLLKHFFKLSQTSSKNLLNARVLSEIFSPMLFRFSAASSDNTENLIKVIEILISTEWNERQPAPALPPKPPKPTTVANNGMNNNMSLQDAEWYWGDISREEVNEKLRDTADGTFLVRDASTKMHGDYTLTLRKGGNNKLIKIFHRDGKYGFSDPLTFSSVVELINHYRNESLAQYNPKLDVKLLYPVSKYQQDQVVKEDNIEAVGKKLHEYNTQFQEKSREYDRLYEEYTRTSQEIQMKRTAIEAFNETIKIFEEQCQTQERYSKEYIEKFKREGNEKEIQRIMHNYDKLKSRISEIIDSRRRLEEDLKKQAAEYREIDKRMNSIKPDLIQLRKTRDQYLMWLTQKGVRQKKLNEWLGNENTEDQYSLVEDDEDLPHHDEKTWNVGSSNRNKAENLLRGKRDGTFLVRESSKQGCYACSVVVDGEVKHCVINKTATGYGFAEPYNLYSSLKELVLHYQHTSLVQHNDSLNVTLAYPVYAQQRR

Cc1csc2nc(C(C)Nc3ncnc4[nH]cnc34)c(-c3cc(F)cc(F)c3)c(=O)n12 (single isomer, unassigned) [Example 44, 6-(3,5-difluorophenyl)-3-methyl-7-[1-(9H-purin-6-ylamino)ethyl]-5H-[1,3]thiazolo[3,2-a]pyrimidin-5-one]
< 50 nM: all assays above
